{
  "source": "paper PMC10600247",
  "about": "“Impact of C- and N-terminal protection on the stability, metal chelation and antimicrobial properties of calcitermin” (Scientific Reports, 2023)",
  "key": {"S. aureus (ATCC 25293)": {"test_system": "S. aureus (ATCC 25293)", "experiment": "In vitro anti-S. aureus CFU assay", "assay_type": "cell-based, Staphylococcus aureus", "settings": "3 h, pH 5.4; for mean CFU number ± S.D.: per 0.1 mL", "method": "All microbes were grown at 37 °C in Tryptic Soy Broth (TSB; Biolife, Milan, Italy) or Tryptic Soy Agar plates (TSA, Biolife, Milan, Italy). Peptides were tested at a final concentration C = 0.128, 0.064, 0.032 mg/mL, in the presence or absence of ZnCl2 or CuCl2, at a M:L molar ratio 0.9:1. Briefly, all the microbes were expanded in TSB at 37 °C under agitation for 12 h and then sub-cultured by 1:10 dilution in TSB under the same conditions until reaching OD600nm = 0.3–0.4, as measured by spectrophotometric reading using a GENESYS 10S UV–Vis spectrophotometer (Thermo Scientific, Milan, Italy), corresponding to 0.9–1.2 × 10^7 colony forming units (CFU) per mL, 1.5–2 × 10^8 CFU/mL and 2.4–3.2 × 10^8 CFU/mL, for C. albicans, S. aureus and E. coli respectively. The cultures were then centrifuged at 4500 rpm for 10 min in a SL 8 centrifuge (TX-150 Rotor) (Thermo Scientific, Milan, Italy), and the cellular pellets were washed with PBS pH 5.4. Pelletized cultures were then suspended in 10 mL of PBS pH 5.4, then the suspensions were diluted to a final concentration of 10^4 CFU/mL. Aliquots of 100 µl (corresponding to 10^3 CFU) were seeded in each well of a 96-wells plate. 3 µl of TSB at pH 5.4 were added to each well to obtain a final 1.5% TSB concentration in the culture medium. Peptides were serially diluted in PBS pH 5.4 to C = 0.257, 0.128, and 0.064 mg/mL. ZnCl2 and CuCl2 solutions were added where requested to obtain a M:L ratio 0.9:1. 100 µl of the prepared peptides ± ZnCl2/CuCl2 solutions were then added to each well, obtaining the final 0.128, 0.064 and 0.032 mg/mL peptide concentrations in a total 0.2 mL volume. PBS alone and PBS + ZnCl2/CuCl2 solutions were included as controls. The plates were incubated at 37 °C on a platform rocker with slow stirring for 3 and 24 h. At the end of the incubation times, 100 µl aliquots were taken from each sample and diluted in PBS pH 5.4 to be seeded on TSA plates. Specifically, aliquots were diluted 1:10 at 3 h, and 1:200, 1:100,000 and 1:10 at 24 h, for C. albicans, E. coli, and S. aureus respectively. After incubation for 24 h at 37 °C, grown CFUs were enumerated. Samples were assayed in triplicate in two independent experiments. Student’s t-test was used for the evaluation of significance in biological tests; a p value ≤ 0.05 was considered significant."}, "[1]": {"text": "Stability constants for proton and metal complexes were obtained from pH-metric titration curves registered at T = 298 K and ionic strength 0.1 M (KCl). The potentiometric apparatus was previously described. Solutions were titrated with 0.1 M carbonate-free KOH. The electrode was daily calibrated for hydrogen ion concentration by titrating HNO3 with the standard base solution, under the same experimental conditions as above. The asymmetry potential and the slope of the electrode couple were computed by means of […][41] and Glee[42] programs. The purities and exact concentrations of the ligand solutions were determined by the Gran method. The […][44] program was employed for the overall formation constant (β) calculations, referred to the following equilibrium equation: pM + qL + rH ⇆ MpLqHr (charges omitted; p is 0 in the case of ligand protonation; r can be negative). The computed standard deviations (referring to random errors only) were given by the program itself and are shown in parentheses as uncertainties on the last significant figure. Hydrolysis constants for metal ions were taken from the literature[45],[46]. The distribution and competition diagrams were computed using the HYSS program.\n1. Wild-type calcitermin: thermodynamic data\nWild-type calcitermin (WT) has been previously investigated by our research group in aqueous solutions and ionic medium NaClO4.1 For the sake of comparison, potentiometric studies of WT and its copper and zinc complexes have been performed in a different ionic medium (KCl 0.1 M). The study of the speciation under different experimental conditions, changing ionic medium and metal-ligand ratio, is essential to comprehensively describe the thermodynamics of calcitermin, which is usually found in multicomponent media like biological fluids.\nTable S1. Equilibrium constants for protonation of WT and its Cu2+ and Zn2+ complex formation at T = 298 K and I = 0.1 M (KCl). Values in parentheses are standard deviations on the last significant figure."}, "[2]": {"settings": "peptide 0.032 mg/mL + CuCl2 (0.9:1)"}, "[3]": {"settings": "peptide 0.032 mg/mL + ZnCl2 (0.9:1)"}, "[4]": {"settings": "peptide 0.064 mg/mL + CuCl2 (0.9:1)"}, "[5]": {"settings": "peptide 0.064 mg/mL + ZnCl2 (0.9:1)"}, "[6]": {"settings": "T = 298 K, I = 0.1 M (KCl), charges omitted"}},
  "note": "Residues, ends and D or L forms follow the SMILES beside them.",
  "data": [
    {"smiles": "CC[C@H](C)[C@H](NC(=O)[C@H](C)NC(=O)[C@@H](N)C(C)C)C(=O)N[C@@H](C)C(=O)N[C@@H](CC(C)C)C(=O)N[C@@H](CCCCN)C(=O)N[C@@H](C)C(=O)N[C@@H](C)C(=O)N[C@@H](Cc1c[nH]cn1)C(=O)N[C@@H](Cc1ccc(O)cc1)C(=O)N[C@@H](Cc1c[nH]cn1)C(=O)N[C@H](C(=O)N[C@@H](Cc1c[nH]cn1)C(=O)N[C@@H](CCCCN)C(=O)N[C@@H](CCC(=O)O)C(N)=O)[C@@H](C)O", "note": "[L3, VAIALKAAHYHTHKE-NH2] (H-VAIALKAAHYHTHKE-NH2)", "values": [
      {"measurement": "CFU decrease/increase with respect to untreated controls", "setting": "S. aureus (ATCC 25293); [2]", "value": "+6%"},
      {"measurement": "mean CFU number ± S.D.", "setting": "S. aureus (ATCC 25293); [2]", "value": "187 ± 13", "unit": "CFU"},
      {"measurement": "CFU decrease/increase with respect to untreated controls", "setting": "S. aureus (ATCC 25293); [3]", "value": -6, "unit": "%"},
      {"measurement": "mean CFU number ± S.D.", "setting": "S. aureus (ATCC 25293); [3]", "value": "167 ± 22", "unit": "CFU"},
      {"measurement": "CFU decrease/increase with respect to untreated controls", "setting": "S. aureus (ATCC 25293); [4]", "value": -2, "unit": "%"},
      {"measurement": "mean CFU number ± S.D.", "setting": "S. aureus (ATCC 25293); [4]", "value": "173 ± 69", "unit": "CFU"},
      {"measurement": "CFU decrease/increase with respect to untreated controls", "setting": "S. aureus (ATCC 25293); [5]", "value": -50, "unit": "%"},
      {"measurement": "mean CFU number ± S.D.", "setting": "S. aureus (ATCC 25293); [5]", "value": "88 ± 18", "unit": "CFU"},
      {"measurement": "mean CFU number ± S.D.", "setting": "S. aureus (ATCC 25293); peptide 0.128 mg/mL + CuCl2 (0.9:1)", "value": "94 ± 2", "unit": "CFU"},
      {"measurement": "mean CFU number ± S.D.", "setting": "S. aureus (ATCC 25293); peptide 0.128 mg/mL + ZnCl2 (0.9:1)", "value": "48 ± 8", "unit": "CFU"},
      {"measurement": "CFU decrease/increase with respect to untreated controls", "setting": "S. aureus (ATCC 25293); peptide alone 0.032 mg/mL", "value": -28, "unit": "%"},
      {"measurement": "mean CFU number ± S.D.", "setting": "S. aureus (ATCC 25293); peptide alone 0.032 mg/mL", "value": "127 ± 64", "unit": "CFU"},
      {"measurement": "mean CFU number ± S.D.", "setting": "S. aureus (ATCC 25293); peptide alone 0.064 mg/mL", "value": "101 ± 30", "unit": "CFU"},
      {"measurement": "mean CFU number ± S.D.", "setting": "S. aureus (ATCC 25293); peptide alone 0.128 mg/mL", "value": "91 ± 12", "unit": "CFU"},
      {"measurement": "pKa [CuH2L]", "setting": "[1]", "value": 7.75},
      {"measurement": "pKa [CuH3L]", "setting": "[1]", "value": 6.90},
      {"measurement": "pKa [CuH4L]", "setting": "[1]", "value": 6.21},
      {"measurement": "pKa [CuH5L]", "setting": "[1]", "value": 5.16},
      {"measurement": "pKa [CuHL]", "setting": "[1]", "value": 9.53},
      {"measurement": "pKa [CuL]", "setting": "[1]", "value": 10.01},
      {"measurement": "pKa [ZnH2L]", "setting": "[1]", "value": 8.65},
      {"measurement": "pKa [ZnH3L]", "setting": "[1]", "value": 7.69},
      {"measurement": "pKa [ZnH4L]", "setting": "[1]", "value": 7.32},
      {"measurement": "pKa [ZnH5L]", "setting": "[1]", "value": 5.6},
      {"measurement": "pKa [ZnHL]", "setting": "[1]", "value": 9.47},
      {"measurement": "logβ [CuH2L]", "setting": "[1]; [6]", "value": "33.11(2)"},
      {"measurement": "logβ [CuH3L]", "setting": "[1]; [6]", "value": "40.00(3)"},
      {"measurement": "logβ [CuH4L]", "setting": "[1]; [6]", "value": "46.21(2)"},
      {"measurement": "logβ [CuH5L]", "setting": "[1]; [6]", "value": "51.38(2)"},
      {"measurement": "logβ [CuH-1L]", "setting": "[1]; [6]", "value": "5.82(4)"},
      {"measurement": "logβ [CuHL]", "setting": "[1]; [6]", "value": "25.36(3)"},
      {"measurement": "logβ [CuL]", "setting": "[1]; [6]", "value": "15.83(5)"},
      {"measurement": "logβ [ZnH2L]", "setting": "[1]; [6]", "value": "28.06(4)"},
      {"measurement": "logβ [ZnH3L]", "setting": "[1]; [6]", "value": "35.75(6)"},
      {"measurement": "logβ [ZnH4L]", "setting": "[1]; [6]", "value": "43.07(3)"},
      {"measurement": "logβ [ZnH5L]", "setting": "[1]; [6]", "value": "48.7(1)"},
      {"measurement": "logβ [ZnHL]", "setting": "[1]; [6]", "value": "19.40(5)"},
      {"measurement": "logβ [ZnL]", "setting": "[1]; [6]", "value": "9.94(4)"}
    ]}
  ]
}
